pIC50: −log10 of the molar value.
System: SKOV3-Luc ovarian tumor cells
Assay type: cell-based, human

N.N.[Cl][Pt][Cl] [cisplatin]
pIC50: 3.64

From US11013784B2 (priority 2015, dated 2021)
